According to patent publication US8946439B2, “Amide compounds, compositions and uses thereof” (Evotec AG, priority 2008, dated 2015):
Read-outs that look alike come from different tables or passages of the source.

Columns and labels:
[1] = molecular target: T1, hP2X3 (Homo sapiens, UniProt P56373); assay: Calcium uptake assay (P2X antagonist assay), P2X3 homomer; format: cell-based; details: hP2X3
T1 construct: expressed in transfected cells; host or cells: e.g. HEK293 or 1321N1
T1 sequence (P56373 1-397): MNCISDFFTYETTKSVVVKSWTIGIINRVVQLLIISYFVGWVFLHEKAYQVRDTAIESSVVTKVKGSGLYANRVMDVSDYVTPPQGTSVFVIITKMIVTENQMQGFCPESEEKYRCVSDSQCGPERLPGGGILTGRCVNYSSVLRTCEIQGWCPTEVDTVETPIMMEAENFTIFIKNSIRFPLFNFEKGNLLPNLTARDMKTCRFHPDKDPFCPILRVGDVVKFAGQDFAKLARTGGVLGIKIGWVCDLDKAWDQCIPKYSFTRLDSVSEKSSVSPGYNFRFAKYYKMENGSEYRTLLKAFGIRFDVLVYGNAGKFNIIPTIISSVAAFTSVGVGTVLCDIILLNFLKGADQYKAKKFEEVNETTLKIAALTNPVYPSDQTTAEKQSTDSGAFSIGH
Method in brief: (§1)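 Stably or transiently transfected HEK293 or 1321N1 cells; the heteromer is made by adding P2X3 to a P2X2-stable line, with heteromer function isolated pharmacologically. The peak-minus-baseline FLIPR calcium signal gives % inhibition and a 4-parameter-logistic IC50.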

[2] = molecular target: T2, hP2X2/3H (Homo sapiens, UniProt P56373+Q9UBL9); assay: Calcium uptake assay (P2X antagonist assay), P2X2/3 heteromer; format: cell-based; details: hP2X2/3H
T2 construct: expressed in transfected cells; host or cells: e.g. HEK293 or 1321N1
T2 sequence (Q9UBL9 1-471): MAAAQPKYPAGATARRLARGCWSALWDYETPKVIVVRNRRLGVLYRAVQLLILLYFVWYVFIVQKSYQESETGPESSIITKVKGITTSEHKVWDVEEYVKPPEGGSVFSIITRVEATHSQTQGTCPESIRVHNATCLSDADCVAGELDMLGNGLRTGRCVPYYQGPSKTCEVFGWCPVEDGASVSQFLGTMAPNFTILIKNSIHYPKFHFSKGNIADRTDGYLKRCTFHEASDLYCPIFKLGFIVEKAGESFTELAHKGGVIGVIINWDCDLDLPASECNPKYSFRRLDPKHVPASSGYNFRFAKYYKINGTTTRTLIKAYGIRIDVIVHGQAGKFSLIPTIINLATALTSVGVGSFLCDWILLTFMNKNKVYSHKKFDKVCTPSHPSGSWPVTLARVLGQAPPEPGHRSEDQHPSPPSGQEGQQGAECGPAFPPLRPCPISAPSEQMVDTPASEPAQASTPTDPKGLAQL
T2 sequence (P56373 1-397): T1 sequence (P56373 1-397)
Method in brief: as §1

[3] = calcium uptake assay, read-out: IC50 hP2X3 (nM), Ca Influx
[4] = calcium uptake assay, read-out: IC50 hP2X2/3H (nM), Ca Influx
[5] = Ca influx (calcium uptake assay), read-out: IC50 hP2X3
[6] = Ca influx (calcium uptake assay), read-out: IC50 hP2X2/3H

Compound	IC50 [1, 3]	IC50 [2, 4]	IC50 [1, 5]	IC50 [2, 6]
CCCS(=O)(=O)c1cc(C(=O)N[C@H](C)c2cnc(C)nc2)cc(-c2ccc(C)cc2)c1 [Compound 55]	< 100 nM	< 100 nM	–	–
Cc1ccc(CNC(=O)c2cc(-c3ccc(C)c(F)c3)cc(S(C)(=O)=O)c2)cn1 [Compound 137]	100 to 500 nM	100 to 500 nM	–	–
Cc1ccc(-c2cc(C(=O)N[C@@H](C)CN3CCOCC3)cc(C(=O)N3CCCC3)c2)cc1 [Compound 82]	< 100 nM	501 to 1000 nM	–	–
Cc1ccc(-c2cc(C#N)cc(C(=O)NCc3ccc(C)nc3)c2)nc1 [Compound 160]	100 to 500 nM	501 to 1000 nM	–	–
Cc1ccc(-c2cc(C(=O)NCc3ccc4cccnc4c3)cc(S(C)(=O)=O)c2)cc1 [Compound 23]	100 to 500 nM	100 to 500 nM	–	–
Cc1ccc(-c2cc(C(=O)N[C@H](C)c3ccc(C(F)(F)F)nc3)cc(C(=O)N3CCCC3)c2)nc1 [Compound 135]	< 100 nM	< 100 nM	–	–
Cc1ccc(-c2cc(C(=O)N[C@@H](C)c3cnc(C)nc3)cc(C(=O)N3CCCC3)c2)cc1 [Compound 93]	100 to 500 nM	501 to 1000 nM	–	–
Cc1ccc(-c2cc(C(=O)N[C@H](C)c3cnc(C)nc3)cc(C(=O)N3CCCC3)c2)cc1 [Compound 52]	< 100 nM	< 100 nM	–	–
Cc1ccc(-c2cc(C(=O)NCc3ccc(C)nc3)cc(S(C)(=O)=O)c2)nc1 [Compound 113, 3-(5-Methylpyridin-2-yl)-N-((6-methylpyridin-3-yl)methyl)-5-(methylsulfonyl)benzamide]	< 100 nM	100 to 500 nM	–	–
Cc1ccc(-c2cc(CN3CCN(C)CC3)cc(C(=O)NCc3ccc(C)nc3)c2)nc1 [Compound 244]	–	–	100 to 500 nM	501 to 1000 nM
Cc1ccc(-c2cc(C(=O)NCc3cnc(C)nc3)cc(C(=O)N3CCCC3)c2)cc1 [Compound 20, 4′-Methyl-N-((2-methylpyrimidin-5-yl)methyl)-5-(pyrrolidine-1-carbonyl)biphenyl-3-carboxamide]	< 100 nM	< 100 nM	–	–
Cc1ccc(-c2cc(C(=O)NCc3ccc(C)nc3)cc(C(O)CN(C)C)c2)cc1 (stereo not drawn) [Compound 367]	–	–	< 100 nM	> 1000 nM
Cc1ccc(-c2cc(C(=O)N[C@H](C)c3cnc(C)nc3)cc(C(=O)N3CCC3)c2)cc1 [Compound 78]	< 100 nM	< 100 nM	–	–
Cc1ccc(-c2cc(C(=O)N[C@H](C)c3cnc(C)c(Cl)c3)cc(S(C)(=O)=O)c2)cc1 [Compound 149]	100 to 500 nM	100 to 500 nM	–	–
Cc1ccc(-c2cc(C(=O)NCc3ncc(C(F)(F)F)cc3Cl)cc(C(=O)N3CCCC3)c2)cc1 [Compound 74]	< 100 nM	< 100 nM	–	–
Cc1ccc([C@@H](C)NC(=O)c2cc(C(=O)N3CCCC3)cc(-c3ccc(Br)cc3)c2)cn1 [Compound 217]	–	–	< 100 nM	< 100 nM
COCC(CO)Oc1cc(C(=O)N[C@H](C)c2ccc(C)nc2)cc(-c2ccc(C)cc2)c1 (stereo partly drawn) [Compound 323]	–	–	< 100 nM	< 100 nM
Cc1ccc(-c2cc(OCC3CCOC3)cc(C(=O)N[C@H](C)c3ccc(C)nc3)c2)nc1 (stereo partly drawn) [Compound 334]	–	–	< 100 nM	< 100 nM
Cc1ccc(-c2cc(C(=O)N[C@H](C)c3cnc(C)c(Cl)c3)cc(C(=O)N3CCCC3)c2)cc1 [Compound 104]	< 100 nM	100 to 500 nM	–	–
Cc1ccc(-c2cc(C(=O)N[C@H](C)c3cnc(C)nc3)cc(S(=O)(=O)N3CCCC3)c2)c(C#N)c1 [Compound 147]	< 100 nM	> 1000 nM	–	–
Cc1ccc(-c2cc(Oc3nc(C)cs3)cc(C(=O)N[C@H](C)c3ccc(C)nc3)c2)c(C#N)c1 [Compound 373]	–	–	< 100 nM	< 100 nM
CCCS(=O)(=O)c1cc(C(=O)N[C@@H](C)CN2CCOCC2)cc(-c2ccc(C)cc2)c1 [Compound 70]	< 100 nM	100 to 500 nM	–	–
COc1ccc([C@@H](CCO)NC(=O)c2cc(-c3ccc(C)cc3)cc(S(C)(=O)=O)c2)cn1 [Compound 222]	–	–	< 100 nM	< 100 nM

Compound	IC50 [1, 3]	IC50 [2, 4]	IC50 [1, 5]	IC50 [2, 6]
Cc1ccc(-c2cc(C(=O)NCc3ccc(C)nc3)cc(C(=O)N3CC4CN(C)CC4C3)c2)cc1 (stereo not drawn) [Compound 141]	< 100 nM	100 to 500 nM	–	–
Cc1ccc(-c2cc(C(=O)NCc3cnc(C)nc3)cc(C(O)c3ccccn3)c2)cc1 (stereo not drawn) [Compound 267]	–	–	< 100 nM	< 100 nM
Cc1ccc(-c2cc(C(=O)NCc3cnc(C)nc3)cc(C(=O)N(C)CC(C)C)c2)cc1 [Compound 12, N3-Isobutyl-N3,4′-dimethyl-N5-((2-methylpyrimidin-5-yl)methyl)biphenyl-3,5-dicarboxamide]	< 100 nM	< 100 nM	–	–
Cc1ccc(-c2cc(CO)cc(C(=O)N[C@H](C)c3ccc(C)nc3)c2)cc1 [Compound 320]	–	–	< 100 nM	100 to 500 nM
Cc1ccc(-c2cc(C(N)=O)cc(C(=O)NCc3ccc(C)nc3)c2)cc1 [Compound 161]	< 100 nM	100 to 500 nM	–	–
Cc1ccc(-c2cc(C(=O)N[C@H](C)c3ccc(C)nc3)cc(C(O)c3nccs3)c2)nc1 (stereo partly drawn) [Compound 291]	–	–	< 100 nM	< 100 nM
Cc1ccc(-c2cc(C(=O)N[C@@H](C)CO)cc(S(=O)(=O)C3CCCC3)c2)cc1 [Compound 282]	–	–	< 100 nM	> 1000 nM
Cc1ccc(-c2cc(CN(C)C)cc(C(=O)N[C@H](C)c3ccc(C)nc3)c2)cc1 [Compound 340, (R)-5-((Dimethylamino)methyl)-4′-methyl-N-(1-(6-methylpyridin-3-yl)ethyl)biphenyl-3-carboxamide]	–	–	< 100 nM	100 to 500 nM
Cc1ccc(-c2cc(C(=O)N[C@H](C)c3cnc(C)nc3)cc(C(O)c3ccccn3)c2)cc1 (stereo partly drawn) [Compound 268]	–	–	< 100 nM	< 100 nM
CCC(O)c1cc(C(=O)N[C@H](C)c2ccc(C)nc2)cc(-c2ccc(C)cc2)c1 (stereo partly drawn) [Compound 379]	–	–	< 100 nM	< 100 nM
Cc1ccc(-c2cc(C(=O)N[C@H](C)c3cnn(CC(F)(F)F)c3C)cc(C(=O)N3CCCC3)c2)cc1 [Compound 117]	501 to 1000 nM	> 1000 nM	–	–
Cc1ccc(-c2cc(C(=O)NCc3ccn4ccnc4c3)cc(S(C)(=O)=O)c2)nc1 [Compound 351]	–	–	< 100 nM	100 to 500 nM
Cc1ccc(-c2cc(C(=O)NCc3ccc(C)nc3)cc(C(=O)N3CCCC3)c2)nc1 [Compound 122, 3-(5-Methylpyridin-2-yl)-N-((6-methylpyridin-3-yl)methyl)-5-(pyrrolidine-1-carbonyl)benzamide]	< 100 nM	< 100 nM	–	–
Cc1ccc(-c2cc(C(=O)N[C@H](C)c3cnc(C)nc3)cc(C(O)CO)c2)cc1 (stereo partly drawn) [Compound 361]	–	–	< 100 nM	100 to 500 nM
Cc1ccc(-c2cc(C(=O)NCc3ccc4c(c3)S(=O)(=O)CC4)cc(S(C)(=O)=O)c2)nc1 [Compound 352]	–	–	< 100 nM	100 to 500 nM
Cc1ccc(-c2cc(C(=O)O)cc(C(=O)N[C@@H](C)CO)c2)cc1 [Compound 4]	> 1000 nM	> 1000 nM	–	–
CCCS(=O)(=O)c1cc(C(=O)NCc2ccc(C)c(S(C)(=O)=O)c2)cc(-c2ccc(C)cc2)c1 [Compound 41]	< 100 nM	< 100 nM	–	–
COc1ccc(CNC(=O)c2cc(C(=O)N3CCCC3)cc(-c3ccc(C)cc3)c2)cn1 [Compound 152]	< 100 nM	< 100 nM	–	–
Cc1ccc(-c2cc(C(=O)NCc3ccc(C)c(S(C)(=O)=O)c3)cc(C(=O)N3CCCC3)c2)cc1 [Compound 71]	< 100 nM	< 100 nM	–	–
Cc1ccc(-c2cc(C(=O)O)cc(C(=O)NCc3ccc(C)nc3)c2)cc1 [Compound 87, 4′-Methyl-5-((6-methylpyridin-3-yl)methylcarbamoyl)biphenyl-3-carboxylic acid]	100 to 500 nM	100 to 500 nM	–	–
Cc1ccc(-c2cc(C(=O)NCc3cnc(C)nc3)cc(C(=O)N3CCC(F)(F)C3)c2)cc1 [Compound 34, 5-(3,3-Difluoropyrrolidine-1-carbonyl)-4′-methyl-N-((2-methylpyrimidin-5-yl)methyl)biphenyl-3-carboxamide]	< 100 nM	< 100 nM	–	–
Cc1ccc(-c2cc(C(=O)NCc3ccc(Cl)cc3Cl)cc(S(C)(=O)=O)c2)nc1 [Compound 385]	–	–	100 to 500 nM	100 to 500 nM
